Results on 24 molecules are retold here after patent US8143393B2, “Substituted 4-amino-pyrrolotriazine derivatives useful for treating hyper-proliferative disorders and diseases associated with angiogenesis” (Bayer HealthCare LLC, priority 2005, dated 2012).

In the experiment the target is T1, FGFR-1 (Homo sapiens, UniProt P11362).
T1 construct: GST; made in house
Put plainly: FGFR-1 TR-FRET biochemical assay. On the procedure: FGFR-1TR-FRET Biochemical Assay
The FGFR-1 Assay was performed on half well 96-well opaque plates (Costar 3915) in a LANCE format. LANCE is a homogenous time resolved fluormetry based application available through Perkin Elmer. For this assay, 50 uL reactions were set up using: 0.6 uM ATP (Sigma), 25 nM poly GT-biotin (CIS BIO International), 2 nM Eu-labelled phospho-Tyr Ab (PY20 PerkinElmer), 10 nM Streptavidin-APC (Perkin Elmer), 5 nM FGFR1-GST (generated by DRT, Bayer Healthcare), 1% DMSO, 50 mM HEPES pH 7.5, 10 mM MgCl2, 0.1 mM EDTA, 0.015% Brij, 0.1 mg/ml BSA, 0.1% B-mercaptoethanol. All reactions were initiated with the addition of enzyme and were left to incubate for one hour at room temperature. Time-resolved fluorescence was then read on a Perkin Elmer VictorV Multilabel counter. The reading protocol uses an excitation wavelength at 340 nm and emission reads at both 615 and 665 nm. Signal was calculated as a ratio: (Flourescence at 665 nm/Flourescence at 615 nM)*10000 for each well. The background control used for this assay is the signal produced with all assay components excluding ATP. For IC50 generation, compounds were added prior to the enzyme initiation. A 50-fold stock plate was made with compounds serially diluted 1:5 in a 50% DMSO/50% dH2O solution. A 1 μL addition of the stock to the assay wells gave final compound concentrations ranging from 10 μM-0.128 nM in 1% DMSO. The data were expressed as percent inhibition: % inhibition=100−((Signal with inhibitor−background)/(Signal without inhibitor−background))*100.
(In TR-FRET formats the signal depends on donor and acceptor labels being close together.)

Where [1] appears, read: 0.6 uM ATP, 5 nM FGFR1-GST, bounds given in nM.

A word on the IC50: it is the concentration that inhibits the measured activity by half. Lower therefore signals higher potency.

T1 sequence (P11362 22-822): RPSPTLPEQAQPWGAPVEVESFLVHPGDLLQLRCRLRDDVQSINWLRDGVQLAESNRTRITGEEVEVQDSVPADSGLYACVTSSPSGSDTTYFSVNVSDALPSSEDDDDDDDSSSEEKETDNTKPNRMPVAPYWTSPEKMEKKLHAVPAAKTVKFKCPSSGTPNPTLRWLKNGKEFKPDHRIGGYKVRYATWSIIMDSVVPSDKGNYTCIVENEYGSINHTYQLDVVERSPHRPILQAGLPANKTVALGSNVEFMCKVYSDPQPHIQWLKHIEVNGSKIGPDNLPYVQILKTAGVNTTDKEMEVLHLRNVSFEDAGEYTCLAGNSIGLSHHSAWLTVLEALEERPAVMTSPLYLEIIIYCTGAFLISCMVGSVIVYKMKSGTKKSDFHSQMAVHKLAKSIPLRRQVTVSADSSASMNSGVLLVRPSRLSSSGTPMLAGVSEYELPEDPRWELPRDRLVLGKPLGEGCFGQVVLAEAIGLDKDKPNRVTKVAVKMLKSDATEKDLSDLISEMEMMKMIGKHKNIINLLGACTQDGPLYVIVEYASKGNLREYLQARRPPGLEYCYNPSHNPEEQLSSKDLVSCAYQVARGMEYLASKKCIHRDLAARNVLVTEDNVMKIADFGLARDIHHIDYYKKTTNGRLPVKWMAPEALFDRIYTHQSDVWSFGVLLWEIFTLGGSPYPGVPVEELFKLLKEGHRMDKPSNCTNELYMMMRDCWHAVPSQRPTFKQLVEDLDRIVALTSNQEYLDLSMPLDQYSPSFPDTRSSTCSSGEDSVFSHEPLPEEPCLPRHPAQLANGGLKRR

Molecule `CNC(=O)CN1CCC(c2cc(-c3ccc(NC(=O)Nc4cc(C(F)(F)F)ccc4F)c(F)c3)c3c(N)ncnn23)CC1` [Example 120, 2-[4-(4-amino-5-3-fluoro-4-[([2-fluoro-5-(trifluoromethyl)phenyl]aminocarbonyl)amino]phenylpyrrolo[2,1-f][1,2,4]triazin-7-yl)piperidin-1-yl]-N-methylacetamide] showed an IC50 under setting [1] of less than 10 nM.

Under setting [1], `Cc1cc(-c2cc(CN3CCCOCC3)n3ncnc(N)c23)ccc1NC(=O)Nc1cc(C(F)(F)F)ccn1` [Example 180, 1-{4-[4-amino-7-(1,4-oxazepan-4-ylmethyl)pyrrolo[2,1-f][1,2,4]triazin-5-yl]-2-methylphenyl}-3-[4-(trifluoromethyl)pyridin-2-yl]urea] showed an IC50 of less than 10 nM.

For `Nc1ncnn2c(C3CCN(C(=O)CO)C3)cc(-c3ccc(NC(=O)Nc4cc(C(F)(F)F)ccc4F)c(F)c3)c12` (stereo not shown) [Example 204, N-{4-[4-amino-7-(1-glycoloylpyrrolidin-3-yl)pyrrolo[2,1-f][1,2,4]triazin-5-yl]-2-fluorophenyl}-N′-[2-fluoro-5-(trifluoromethyl)phenyl]urea], the IC50 under setting [1] is less than 10 nM.

In turn, `Nc1ncnn2c(C3CCN(C(=O)CO)CC3)cc(-c3ccc(NC(=O)Nc4cc(C(F)(F)F)ccn4)c(F)c3)c12` [Example 236, N-{4-[4-amino-7-(1-glycoloylpiperidin-4-yl)pyrrolo[2,1-f][1,2,4]triazin-5-yl]-2-fluorophenyl}-N′-[4-(trifluoromethyl)pyridin-2-yl]urea] gave a half-inhibitory concentration (IC50) under setting [1] of less than 10 nM.

As to `Nc1ncnn2c(C3CCN(C4CC4)CC3)cc(-c3ccc(NC(=O)Nc4cc(C(F)(F)F)ccn4)c(F)c3)c12` [Example 235, N-{4-[4-amino-7-(1-cyclopropylpiperidin-4-yl)pyrrolo[2,1-f][1,2,4]triazin-5-yl]-2-fluorophenyl}-N′-[4-(trifluoromethyl)pyridin-2-yl]urea], under setting [1], the IC50 fell in the range of 10 to 100 nM.

Turning to `CC(=O)N1CCC(c2cc(-c3ccc(NC(=O)Nc4cc(C(F)(F)F)ccc4F)c(F)c3)c3c(N)ncnn23)C1` (stereo not shown) [Example 202, N-{4-[7-(1-acetylpyrrolidin-3-yl)-4-aminopyrrolo[2,1-f][1,2,4]triazin-5-yl]-2-fluorophenyl}-N′-[2-fluoro-5-(trifluoromethyl)phenyl]urea], the IC50 under setting [1] is less than 10 nM.

Turning to `CC(O)c1cc(-c2ccc(NC(=O)Nc3cc(C(F)(F)F)ccc3F)c(F)c2)c2c(N)ncnn12` (stereo not shown) [Example 252, N-{4-[4-amino-7-(1-hydroxyethyl)pyrrolo[2,1-f][1,2,4]triazin-5-yl]-2-fluorophenyl}-N′-[2-fluoro-5-(trifluoromethyl)phenyl]urea], under setting [1], the IC50 lay within 10 to 100 nM.

In turn, `CC(C)(C)OC(=O)N1CCC(c2cc(-c3ccc(NC(=O)Nc4cc(C(F)(F)F)ccn4)c(F)c3)c3c(N)ncnn23)C1` (stereo not shown) [Example 208, tert-butyl 3-{4-amino-5-[3-fluoro-4-({[4-(trifluoromethyl)pyridin-2-yl]carbamoyl}amino)phenyl]pyrrolo[2,1-f][1,2,4]triazin-7-yl}pyrrolidine-1-carboxylate] displayed a half-inhibitory concentration (IC50) under setting [1] of 10 to 100 nM.

Turning to `Nc1ncnn2c(CN3CCCOCC3)cc(-c3cc(F)c(NC(=O)Nc4cc(C(F)(F)F)ccc4F)cc3F)c12` [Example 168, N-{4-[4-amino-7-(1,4-oxazepan-4-ylmethyl)pyrrolo[2,1-f][1,2,4]triazin-5-yl]-2,5-difluorophenyl}-N′-[2-fluoro-5-(trifluoromethyl)phenyl]urea], the IC50 under setting [1] is less than 10 nM.

Regarding `Nc1ncnn2c(CCCN3CCS(=O)(=O)CC3)cc(-c3ccc(NC(=O)Nc4cc(C(F)(F)F)ccc4F)c(F)c3)c12` [Example 189, N-(4-{4-amino-7-[3-(1,1-dioxidothiomorpholin-4-yl)propyl]pyrrolo[2,1-f][1,2,4]triazin-5-yl}-2-fluorophenyl)-N′-[2-fluoro-5-(trifluoromethyl)phenyl]urea], the half-inhibitory concentration (IC50) under setting [1] was less than 10 nM.

Consider `CC(=O)c1cc(-c2ccc(NC(=O)Nc3cc(C(F)(F)F)ccn3)c(F)c2)c2c(N)ncnn12` [Example 259, N-[4-(7-acetyl-4-aminopyrrolo[2,1-f][1,2,4]triazin-5-yl)-2-fluorophenyl]-N′-[4-(trifluoromethyl)pyridin-2-yl]urea], for which the IC50 under setting [1] was less than 10 nM.

Take `Cc1ccc(F)c(NC(=O)Nc2ccc(-c3cc(CN4CCOCC4)n4ncnc(N)c34)cc2F)c1` [Example 149, N-{4-[4-amino-7-(morpholin-4-ylmethyl)pyrrolo[2,1-f][1,2,4]triazin-5-yl]-2-fluorophenyl}-N′-(2-fluoro-5-methylphenyl)urea]: under setting [1], the concentration for half-maximal inhibition (IC50) is less than 10 nM.

`Cc1ccnc(NC(=O)Nc2ccc(-c3cc(CN4CCOCC4)n4ncnc(N)c34)cc2Cl)c1` [Example 133, N-4-[4-amino-7-(morpholin-4-ylmethyl)pyrrolo[2,1-f][1,2,4]triazin-5-yl]-2-chlorophenyl-N′-(4-methylpyridin-2-yl)urea]: under setting [1], the IC50 is 10 to 100 nM.

In the case of `Cc1cc(-c2cc(CN3CCOCC3)n3ncnc(N)c23)ccc1NC(=O)Nc1cc(F)cc(C(F)(F)F)c1` [Example 28, N-{4-[4-amino-7-(morpholin-4-ylmethyl)pyrrolo[2,1-f][1,2,4]triazin-5-yl]-2-methylphenyl}-N′-[3-fluoro-5-(trifluoromethyl)phenyl]urea], the IC50 under setting [1] was less than 10 nM.

On to `Nc1ncnn2c(C3CCNC3)cc(-c3ccc(NC(=O)Nc4cc(C(F)(F)F)ccc4F)c(F)c3)c12` (stereo not shown) [Example 200, N-[4-(4-amino-7-pyrrolidin-3-ylpyrrolo[2,1-f][1,2,4]triazin-5-yl)-2-fluorophenyl]-N′-[2-fluoro-5-(trifluoromethyl)phenyl]urea], for which the IC50 under setting [1] lay within 10 to 100 nM.

`Nc1ncnn2c(C3CCNCC3)cc(-c3ccc(NC(=O)Nc4cc(C(F)(F)F)ccc4F)cc3)c12` [Example 242, N-[4-(4-amino-7-piperidin-4-ylpyrrolo[2,1-f][1,2,4]triazin-5-yl)phenyl]-N′-[2-fluoro-5-(trifluoromethyl)phenyl]urea] yielded an IC50 under setting [1] of less than 10 nM.

As for `Cc1cc(-c2cc(CN3CCCOCC3)n3ncnc(N)c23)ccc1NC(=O)Nc1cc(C(F)(F)F)ccc1F` [Example 181, N-{4-[4-amino-7-(1,4-oxazepan-4-ylmethyl)pyrrolo[2,1-f][1,2,4]triazin-5-yl]-2-methylphenyl}-N′-[2-fluoro-5-(trifluoromethyl)phenyl]urea], the half-maximal inhibitory concentration (IC50) under setting [1] is less than 10 nM.

`CS(=O)(=O)N1CCC(c2cc(-c3ccc(NC(=O)Nc4cc(C(F)(F)F)ccc4F)c(F)c3)c3c(N)ncnn23)C1` (stereo not shown) [Example 201, N-(4-{4-amino-7-[1-(methylsulfonyl)pyrrolidin-3-yl]pyrrolo[2,1-f][1,2,4]triazin-5-yl}-2-fluorophenyl)-N′-[2-fluoro-5-(trifluoromethyl)phenyl]urea]: the IC50 under setting [1] is less than 10 nM.

Take `COc1cc(-c2cc(CN3CCOCC3)n3ncnc(N)c23)ccc1NC(=O)Nc1ccc(F)c(C(F)(F)F)c1` [Example 32, N-{4-[4-amino-7-(morpholin-4-ylmethyl)pyrrolo[2,1-f][1,2,4]triazin-5-yl]-2-methoxyphenyl}-N′-[4-fluoro-3-(trifluoromethyl)phenyl]urea]: the 50% inhibitory concentration (IC50) under setting [1] lay in the range of 10 to 100 nM.

`Nc1ncnn2c(CCCN3CCCC3)cc(-c3ccc(NC(=O)Nc4cc(C(F)(F)F)ccc4F)c(F)c3)c12` [Example 186, N-{4-[4-amino-7-(3-pyrrolidin-1-ylpropyl)pyrrolo[2,1-f][1,2,4]triazin-5-yl]-2-fluorophenyl}-N′-[2-fluoro-5-(trifluoromethyl)phenyl]urea] returned an IC50 under setting [1] of less than 10 nM.

`Nc1ncnn2c(CCCN3CCOCC3)cc(-c3ccc(NC(=O)Nc4cc(C(F)(F)F)ccc4Cl)c(F)c3)c12` [Example 217, N-{4-[4-amino-7-(3-morpholin-4-ylpropyl)pyrrolo[2,1-f][1,2,4]triazin-5-yl]-2-fluorophenyl}-N′-[2-chloro-5-(trifluoromethyl)phenyl]urea] came in with an IC50 under setting [1] of 10 to 100 nM.

Regarding `Nc1ncnn2c(C(O)CO)cc(-c3ccc(NC(=O)Nc4cc(C(F)(F)F)ccc4F)c(F)c3)c12` (stereo not shown) [Example 254, N-{4-[4-amino-7-(1,2-dihydroxyethyl)pyrrolo[2,1-f][1,2,4]triazin-5-yl]-2-fluorophenyl}-N′-[2-fluoro-5-(trifluoromethyl)phenyl]urea], the IC50 by setting is: under setting [1], more than 100 nM; (upper bound of the bin 'greater than 100 nM but less than 1 μM' (lower bound in E1)) less than 1000 nM.

Molecule `Nc1ncnn2c(CC3CNCCO3)cc(-c3ccc(NC(=O)Nc4cc(C(F)(F)F)ccc4F)c(F)c3)c12` (stereo not shown) [Example 276, N-{4-[4-amino-7-(morpholin-2-ylmethyl)pyrrolo[2,1-f][1,2,4]triazin-5-yl]-2-fluorophenyl}-N′-[2-fluoro-5-(trifluoromethyl)phenyl]urea] returned an IC50 under setting [1] of 10 to 100 nM.

Molecule `Nc1ncnn2c(CN3CCOCC3)cc(-c3ccc(NC(=O)Nc4cccc(C(F)(F)F)c4F)nc3)c12` [Example 21, N-{5-[4-amino-7-(morpholin-4-ylmethyl)pyrrolo[2,1-f][1,2,4]triazin-5-yl]pyridin-2-yl}-N′-[2-fluoro-3-(trifluoromethyl)phenyl]urea] showed a half-maximal inhibitory concentration (IC50) under setting [1] of 10 to 100 nM.
